According to US20230047816A1 (priority 2018, published 2023):
Counter-ions that a name gives are not always drawn. Like-named read-outs stand apart in the source and are kept apart here. One block for each compound: values may come before it.

Experiments:
[1] = test system: HUVEC spheroids; test: VEGF-A induced sprouting, spheroid-based cellular angiogenesis assay; format: cell-based; details: Homo sapiens; for EC50: 3D HUVEC model, VEGF-A 25 ng/ml, 24 hours, read-out: EC50 of inhibition of vessel sprouting
Method: The effect of PFKFB3 inhibitors on VEGF-A induced sprouting of HUVECs in a spheroid-based cellular angiogenesis assay. Sunitinib was used as a control. The experiments were pursued in modification of the originally published protocol (Korff and Augustin: J Cell Sci 112: 3249-58, 1999). In brief, spheroids were prepared as described (Korff and Augustin: J Cell Biol 143:1341-52, 1998) by pipetting 500 HUVEC in a hanging drop on plastic dishes to allow overnight spheroid aggregation. 50 HUVEC spheroids were then seeded in 0.9 ml of a collagen gel and pipetted into individual wells of a 24 well plate to allow polymerization. The test compounds in combination with the growth factor VEGF-A at 25 ng/ml final assay concentration) were added after 30 min by pipetting 100 μl of a 10-fold concentrated working solution on top of the polymerized gel. Plates were incubated at 37° C. for 24 hours and fixed by adding 4% Roti-Histofix (Roth, Karlsruhe, Germany). Sprouting intensity of HUVEC spheroids treated with the growth factor and the inhibitors were quantitated by an image analysis system determining the cumulative sprout length per spheroid (CSL) using an inverted microscope and the digital imaging software NIS-Elements BR 3.0 (Nikon). The mean of the cumulative sprout length of 10 randomly selected spheroids was analyzed as an individual data point.

[2] = test system: activated T-cells; details: reported in the literature; cited from earlier work
[3] = target: PFKFB3 (Homo sapiens, UniProt Q16875); details: reported in the literature; cited from earlier work
[4] = test system: angiogenesis; details: reported in the literature; cited from earlier work
[5] = reported in the literature; cited from earlier work
[6] = test system: established tumors; details: reported in the literature; cited from earlier work
[7] = all treated patients; cited from earlier work
[8] = test system: MDA-MB-468; test: Combination with anticancer agents, MDA-MB-468; format: cell-based; details: Homo sapiens, anticancer agent alone
Method: (§1) All cells can be incubated in the plates overnight at 37° C., 5% 002 incubator with different medium.

[9] = test system: neurons; test: Neuroprotection, protection factor, NMDA treatment; format: cell-based; details: Treatment NMDA 100 μM 10 minutes, then inhibitor 24 hours
Method: For NMDAR activation, neurons at 8 days in vitro were incubated 100 μM NMDA (plus 10 μM glycine) for 10 minutes. Neurons were then washed and further incubated in culture medium with the PFKFB3 inhibitors for 24 hours. For b-amyloid treatment, neurons at 8 days in vitro were incubated with […] b-amyloid plus the PFKFB3 inhibitors for 24 hours. The Protection factor was estimated as [AMC(beta-A)−AMC(DMSO)]/[AMC(beta-A)−AMC(Test article)] or [AMC(beta-A)−AMC(DMSO)]/[AMC(NMDA)−AMC(Test article)], where:
AMC(DMSO)—% dead neuron in case of DMSO treatment
AMC(NMDA)—% dead neuron in case of NMDA treatment
AMC(Test article)—% dead neuron in case of PFKFB3 inhibitors treatment.

[10] = cited from earlier work
[11] = test system: T-47D; test: Combination with anticancer agents, T-47D; format: cell-based; details: Homo sapiens, T47D, anticancer agent alone
Method: as §1

[12] = test system: MDA-MB-231; test: Combination with anticancer agents, MDA-MB-231; format: cell-based; details: Homo sapiens, anticancer agent alone
Method: as §1

[13] = test system: MCF-7; test: Combination with anticancer agents, MCF-7; format: cell-based; details: Homo sapiens, MCF7, anticancer agent alone
Method: as §1

[14] = test system: Hs-578T; test: Combination with anticancer agents, Hs-578T; format: cell-based; details: Homo sapiens, anticancer agent alone
Method: as §1

[15] = test system: BT-549; test: Combination with anticancer agents, BT-549; format: cell-based; details: Homo sapiens, anticancer agent alone
Method: as §1

[16] = test system: HUVECs; test: Cell viability of HUVECs in normoxia and hypoxia; format: cell-based; details: both normoxia and hypoxia conditions; FIG. 1
[17] = test system: HUVECs; test: HUVEC cell viability (Cyquant NF cell proliferation assay); format: cell-based, human; details: normoxia (20% O2) and hypoxia (1% O2)
Method: ThermoFisher Cyquant NF cell proliferation assay kit Normoxia conditions: 37° C., 5% CO2, 20% O2 incubator Hypoxia conditions: 37° C., 5% CO2, 1% O2 incubator FIG. 2. Effect of GO-672 on vessel sprouting in vitro. Raw images from the experiment with 3D spheroids of HUVEC after treatment with GO-672 (B) and Sunitinib (A). VEGF-A was used as a stimulation factor. Dose-response plot of GO-672 (C) and Sunitinib (D).

[18] = test system: 4T1-M3-Luc breast tumor; test: Orthotopic 4T1-M3-Luc syngeneic breast tumor model; format: in vivo, female BALB/c mice
Method: The aim of this study was to evaluate the antitumor and anti-metastatic efficacy of GO-672 (4-({4-carboxy-2′,4′-dichloro-[1,1′-biphenyl]-3-yl}carbamoyl)-6-hydroxybenzene-1,3-dicarboxylic acid) (30 mg/kg twice daily, i.p.) in an orthotopic 4T1-M3-Luc syngeneic breast tumor model in female BALB/c mice in vivo.
Level of metastasis was evaluated in lymph nodes, lung, spine and ileum by ex vivo luciferase bioluminescence measurements (FIG. 10D).

[19] = test system: RENCA renal tumor; test: Orthotopic RENCA syngeneic renal tumor model; format: in vivo, female BALB/c mice; details: 30 mg/kg twice daily, i.p.
Method: The aim of this study was to evaluate the antitumor efficacy of GO-672 (4-({4-carboxy-2′,4′-dichloro-[1,1′-biphenyl]-3-yl}carbamoyl)-6-hydroxybenzene-1,3-dicarboxylic acid) (30 mg/kg twice daily, i.p.) in an orthotopic RENCA syngeneic renal tumor model in female BALB/c mice in vivo.

[20] = 30 mg/kg twice daily, i.p., day 18

Sequence of PFKFB3 (Q16875 whole entry, species assumed): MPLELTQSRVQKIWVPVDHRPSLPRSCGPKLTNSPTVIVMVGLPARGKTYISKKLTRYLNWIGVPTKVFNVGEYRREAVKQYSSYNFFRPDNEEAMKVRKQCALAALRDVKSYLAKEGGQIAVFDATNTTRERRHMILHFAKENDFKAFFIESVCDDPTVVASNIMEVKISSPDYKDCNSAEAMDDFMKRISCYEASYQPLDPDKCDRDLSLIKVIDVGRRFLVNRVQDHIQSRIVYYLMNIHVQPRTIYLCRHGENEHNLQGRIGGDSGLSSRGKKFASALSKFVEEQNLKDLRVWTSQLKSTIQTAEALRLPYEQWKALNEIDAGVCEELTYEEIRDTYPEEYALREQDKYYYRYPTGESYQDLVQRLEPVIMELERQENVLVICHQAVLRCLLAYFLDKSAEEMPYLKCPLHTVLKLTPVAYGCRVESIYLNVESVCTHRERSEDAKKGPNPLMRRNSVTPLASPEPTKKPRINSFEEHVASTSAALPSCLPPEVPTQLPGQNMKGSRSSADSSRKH

SMILES: CCN(CC)CCNC(=O)c1c(C)[nH]c(/C=C2\C(=O)Nc3ccc(F)cc32)c1C [Sunitinib, reference compound]
- Emax ([1]; HUVEC, positive control, read-out: maximal effect (inhibition of vessel sprouting)): 100%
- EC50 [1]: 0.1 µM

SMILES: O=C(C=Cc1cccnc1)c1ccncc1 [Compound 3PO, 3-(3-pyridinyl)-1-(4-pyridinyl)-2-propen-1-one]
- proliferation of activated T-cells [2]: inhibit proliferation of activated T-cells
- PFKFB3 inhibition [3]: inhibit PFKFB3
- angiogenesis [4]: inhibit angiogenesis
- glucose uptake [5]: reduce glucose uptake
- intracellular concentration of Fru-2,6-BP [5]: reduce intracellular concentration of Fru-2,6-BP
- growth of established tumors in vivo [6]: reduce growth of established tumors in vivo

SMILES: O=CC[C@@H](O)[C@H](O)[C@H](O)CO [2-deoxy-D-glucose]
- adverse effect in clinical trial [7]: hyperglycemia in all treated patients

- IC50 [8]: 0.07 µM
SMILES: COc1cccc2c1C(=O)c1c(O)c3c(c(O)c1C2=O)C[C@@](O)(C(=O)CO)C[C@@H]3O[C@H]1C[C@H](N)[C@H](O)[C@H](C)O1 [Doxorubicin, Doxorubicin Hydrochloride]

SMILES: O=C1NCC(COC(=O)c2ccc(-c3ccc(F)c(F)c3)cc2N2Cc3ccc(-c4cn[nH]n4)cc3C2=O)O1 (stereo not drawn)
- Protection factors [9]: 1.05

SMILES: O=C(O)c1nn(Cc2ccc(Cl)cc2Cl)c2ccccc12 [Lonidamine]
- toxicities in preclinical trials [10]: significant pancreatic and hepatic toxicities

SMILES: CC(CN(C)C)OC(=O)c1ccc(-c2ccc(F)c(F)c2)cc1N1Cc2ccc(-c3cn[nH]n3)cc2C1=O (stereo not drawn)
- Protection factors [9]: 2.56

- IC50 [11]: 21 µM
- IC50 [12]: 14.6 µM
- IC50 [13]: 14.5 µM
- IC50 [14]: 36 µM
- IC50 [15]: 31 µM
SMILES: NC(=O)c1cccc2cn(-c3ccc([C@@H]4CCCNC4)cc3)nc12 [Niraparib]

SMILES: O=C(OCC(O)CO)c1ccc(-c2ccc(F)c(F)c2)cc1N1Cc2ccc(-c3cn[nH]n3)cc2C1=O (stereo not drawn)
- Protection factors [9]: 1.35

SMILES: O=C(/C=C/c1ccc2ccc(C(F)(F)F)cc2n1)c1ccncc1 [ACT-PFK-158, (E)-1-(pyridin-4-yl)-3-(7-(trifluoromethyl)quinolin-2-yl)prop-2-en-1-one]
- PFKFB3 inhibition [3]: inhibit PFKFB3
- glucose uptake [5]: reduce glucose uptake
- intracellular concentration of Fru-2,6-BP [5]: reduce intracellular concentration of Fru-2,6-BP
- growth of established tumors in vivo [6]: reduce growth of established tumors in vivo

- IC50 [8]: 0.01 µM
SMILES: CC(=O)O[C@H]1C(=O)[C@@]2(C)[C@H]([C@H](OC(=O)c3ccccc3)[C@]3(O)C[C@H](OC(=O)[C@H](O)[C@@H](NC(=O)c4ccccc4)c4ccccc4)C(C)=C1C3(C)C)[C@]1(OC(C)=O)CO[C@@H]1C[C@@H]2O [Paclitaxel]

- IC50 [11]: 38.6 µM
SMILES: O=C(c1cc(Cc2n[nH]c(=O)c3ccccc23)ccc1F)N1CCN(C(=O)C2CC2)CC1 [Olaparib]

- reduction of body weight vs control group ([18]; 30 mg/kg twice daily, i.p.): not significant
SMILES: O=C(O)c1cc(C(=O)O)c(C(=O)Nc2cc(-c3ccc(Cl)cc3Cl)ccc2C(=O)O)cc1O [Compound 1, 4-({4-carboxy-2′,4′-dichloro-[1,1′-biphenyl]-3-yl}carbamoyl)-6-hydroxybenzene-1,3-dicarboxylic acid]
- Emax at 100 µM ([1]; HUVEC, at 100 μM, read-out: maximal effect: decrease of vessel sprouting down to): ~25%
- Emax ([1]; HUVEC, at the highest doses, read-out: maximal effect of vessel reduction, % from the initial level): 25 to 50%
- EC50 [1]: 20 to 40 µM
- cell viability of HUVECs [16]: did not reduce cell viability
- cell viability of HUVECs [17]: did not reduce cell viability
- T/C ratio (tumor volume) ([18]; 30 mg/kg twice daily, i.p., day 4): 47%
- T/C ratio (tumor volume) ([18]; 30 mg/kg twice daily, i.p., day 7): 65%
- tumor volume after necropsy [18, 20]: significantly lower
- tumor weight after necropsy [18, 20]: not tumor weight
- level of metastasis (ex vivo luciferase bioluminescence) ([18]; lymph nodes, lung, spine and ileum): No statistically significant difference
- bioluminescence ([19]; day 16): increase of bioluminescence
- tumor volume after necropsy ([19]; day 17): significantly decreased
- tumor weight after necropsy ([19]; day 17): no statistically significant difference
